Measurements taken from ChEMBL document CHEMBL2390874, “Synthesis, antibacterial activity and cytotoxicity of new fused pyrazolo[1,5-a]pyrimidine and pyrazolo[5,1-c][1,2,4]triazine derivatives from new 5-aminopyrazoles” (Eur J Med Chem, 2013).
Values after ≈ are worked out from the molar mass of the structure shown. Active and inactive are the calls of the source. No cut-off for these calls is given here.

Key:
Salmonella typhimurium = assay: Antibacterial activity against Salmonella typhimurium ATCC 51812 assessed as growth inhibition at 1 mg/ml after 24 hrs by agar diffusion method; assay type: functional, organism-based; conditions: Salmonella enterica subsp. enterica serovar Typhimurium
Enterococcus faecalis = assay: Antibacterial activity against Enterococcus faecalis ATCC 14506 assessed as growth inhibition at 1 mg/ml after 24 hrs by agar diffusion method; assay type: functional, organism-based
[1] = system: Staphylococcus epidermidis; assay: Antibacterial activity against Staphylococcus epidermidis ATCC 12228 assessed as growth inhibition at 1 mg/ml after 24 hrs by agar diffusion method; assay type: functional, organism-based
Staphylococcus aureus [2] = assay: Antibacterial activity against methicillin-resistant Staphylococcus aureus ATCC 43300 assessed as growth inhibition at 1 mg/ml after 24 hrs by agar diffusion method; assay type: functional, organism-based
[3] = Selectivity index, ratio of CC50 for african green monkey vero cells to MIC for Escherichia coli ATCC 10536; assay type: functional
[4] = Selectivity index, ratio of CC50 for african green monkey vero cells to MIC for Bacillus subtilis ATCC 11774; assay type: functional
[5] = Selectivity index, ratio of CC50 for african green monkey vero cells to MIC for Staphylococcus aureus ATCC 25923; assay type: functional
[6] = Cytotoxicity against african green monkey vero cells by MTT assay; assay type: cell-based; conditions: chlorocebus sabaeus
Staphylococcus aureus [7] = assay: Bactericidal activity against Staphylococcus aureus ATCC 25923 by broth dilution method; assay type: functional
Escherichia coli [8] = assay: Bactericidal activity against Escherichia coli ATCC 10536 by broth dilution method; assay type: functional
Bacillus subtilis [9] = assay: Bactericidal activity against Bacillus subtilis ATCC 11774 by broth dilution method; assay type: functional
Escherichia coli [10] = assay: Antibacterial activity against Escherichia coli ATCC 10536 assessed as growth inhibition by broth dilution method; assay type: functional
Staphylococcus aureus [11] = assay: Antibacterial activity against Staphylococcus aureus ATCC 25923 assessed as growth inhibition by broth dilution method; assay type: functional
Serratia marcescens = assay: Antibacterial activity against Serratia marcescens ATCC 13880 assessed as growth inhibition at 1 mg/ml after 24 hrs by agar diffusion method; assay type: functional; conditions: ATCC 13880, 24 h, read-out: DIZ
Bacillus subtilis [12] = assay: Antibacterial activity against Bacillus subtilis ATCC 11774 assessed as growth inhibition by broth dilution method; assay type: functional
Pseudomonas aeruginosa [13] = assay: Antibacterial activity against Pseudomonas aeruginosa ATCC 10145 assessed as growth inhibition at 1 mg/ml after 24 hrs by agar diffusion method; assay type: functional; conditions: ATCC 10145, 24 h, read-out: DIZ
Escherichia coli [14] = assay: Antibacterial activity against Escherichia coli ATCC 10536 assessed as growth inhibition at 1 mg/ml after 24 hrs by agar diffusion method; assay type: functional; conditions: ATCC 10536, 24 h, read-out: DIZ
Staphylococcus aureus [15] = assay: Antibacterial activity against Staphylococcus aureus ATCC 25923 assessed as growth inhibition at 1 mg/ml after 24 hrs by agar diffusion method; assay type: functional; conditions: ATCC 25923, 24 h, read-out: DIZ
Bacillus subtilis [16] = assay: Antibacterial activity against Bacillus subtilis ATCC 11774 assessed as growth inhibition at 1 mg/ml after 24 hrs by agar diffusion method; assay type: functional; conditions: ATCC 11774, 24 h, read-out: DIZ
[17] = Selectivity index, ratio of CC50 for african green monkey vero cells to MIC for Pseudomonas aeruginosa ATCC 10145; assay type: functional
Pseudomonas aeruginosa [18] = assay: Bactericidal activity against Pseudomonas aeruginosa ATCC 10145 by broth dilution method; assay type: functional
Pseudomonas aeruginosa [19] = assay: Antibacterial activity against Pseudomonas aeruginosa ATCC 10145 assessed as growth inhibition by broth dilution method; assay type: functional

Question: What does the source list for `CC(=O)c1nnc2c(C#N)c(N3CCCC3)nn2c1C`?
Answer: growth inhibition (GI) (Salmonella typhimurium): inactive; growth inhibition (GI) (Enterococcus faecalis): inactive; growth inhibition (GI) [1]: inactive; growth inhibition (GI) (Staphylococcus aureus [2]): inactive

Question: For `Cc1cc(C)n2nc(N3CCOCC3)c(C#N)c2n1`, which “growth inhibition (GI)” value (Salmonella typhimurium) is on record?
Answer: inactive

Question: What about the “growth inhibition (GI)” value (Enterococcus faecalis) of the same molecule?
Answer: inactive

Question: And the “growth inhibition (GI)” value [1]?
Answer: inactive

Question: And the “growth inhibition (GI)” value (Staphylococcus aureus [2])?
Answer: inactive

Question: What does the source list for `N#Cc1nnc2c(C#N)c(N3CCOCC3)nn2c1N`?
Answer: growth inhibition (GI) (Salmonella typhimurium): inactive; growth inhibition (GI) (Enterococcus faecalis): inactive; growth inhibition (GI) [1]: inactive; growth inhibition (GI) (Staphylococcus aureus [2]): inactive

Question: Which “growth inhibition (GI)” value (Salmonella typhimurium) does the source give for `N#Cc1c(N)nc2c(C#N)c(N3CCCC3)nn2c1N1CCOCC1` here?
Answer: inactive

Question: And the “growth inhibition (GI)” value (Enterococcus faecalis)?
Answer: inactive

Question: What about the “growth inhibition (GI)” value [1] of the same molecule?
Answer: inactive

Question: And the “growth inhibition (GI)” value (Staphylococcus aureus [2])?
Answer: inactive

Question: What does the source list for `CSc1c(C#N)c(N)nc2c(C#N)c(N3CCOCC3)nn12`?
Answer: growth inhibition (GI) (Salmonella typhimurium): inactive; growth inhibition (GI) (Enterococcus faecalis): inactive; growth inhibition (GI) [1]: inactive; growth inhibition (GI) (Staphylococcus aureus [2]): inactive

Question: With `CC(=O)n1nc(N2CCOCC2)c(C#N)c1N` as the molecule, how does the “growth inhibition (GI)” value (Salmonella typhimurium) read?
Answer: inactive

Question: And the “growth inhibition (GI)” value (Enterococcus faecalis)?
Answer: inactive

Question: And the “growth inhibition (GI)” value [1]?
Answer: inactive

Question: And the “growth inhibition (GI)” value (Staphylococcus aureus [2])?
Answer: inactive

Question: With `Cc1ccc(C)n1-c1[nH]nc(N2CCCC2)c1C#N` as the molecule, how does the “Selectivity Index” value [3] read?
Answer: 0.07

Question: And the “Selectivity Index” value [4]?
Answer: 0.14

Question: What about the “Selectivity Index” value [5] of the same molecule?
Answer: 0.07

Question: And the “growth inhibition (GI)” value (Salmonella typhimurium)?
Answer: inactive

Question: What about the “growth inhibition (GI)” value (Enterococcus faecalis) of the same molecule?
Answer: inactive

Question: And the “growth inhibition (GI)” value [1]?
Answer: inactive

Question: And the CC50 [6]?
Answer: 0.55 mg/mL (≈ 2.15 mM)

Question: What about the “growth inhibition (GI)” value (Staphylococcus aureus [2]) of the same molecule?
Answer: inactive

Question: And the MBC (Staphylococcus aureus [7])?
Answer: 8 mg/mL (≈ 31.3 mM)

Question: What about the MBC (Escherichia coli [8]) of the same molecule?
Answer: 16 mg/mL (≈ 62.7 mM)

Question: And the MBC (Bacillus subtilis [9])?
Answer: 8 mg/mL (≈ 31.3 mM)

Question: And the MIC (Escherichia coli [10])?
Answer: 8 mg/mL (≈ 31.3 mM)

Question: And the MIC (Staphylococcus aureus [11])?
Answer: 8 mg/mL (≈ 31.3 mM)

Question: What about the zone of inhibition at 1000 µg/mL (Serratia marcescens) of the same molecule?
Answer: 6 mm

Question: And the MIC (Bacillus subtilis [12])?
Answer: 4 mg/mL (≈ 15.7 mM)

Question: And the zone of inhibition at 1000 µg/mL (Pseudomonas aeruginosa [13])?
Answer: 6 mm

Question: What about the zone of inhibition at 1000 µg/mL (Escherichia coli [14]) of the same molecule?
Answer: 13 mm

Question: What about the zone of inhibition at 1000 µg/mL (Staphylococcus aureus [15]) of the same molecule?
Answer: 7 mm

Question: And the zone of inhibition at 1000 µg/mL (Bacillus subtilis [16])?
Answer: 8 mm

Question: What does the source list for `CC(=O)n1nc(N2CCCC2)c(C#N)c1N`?
Answer: Selectivity Index [3]: 0.18; Selectivity Index [4]: 0.18; Selectivity Index [5]: 0.18; growth inhibition (GI) (Salmonella typhimurium): inactive; growth inhibition (GI) (Enterococcus faecalis): inactive; growth inhibition (GI) [1]: inactive; CC50 [6]: 2.81 mg/mL (≈ 12.8 mM); growth inhibition (GI) (Staphylococcus aureus [2]): inactive; MBC (Staphylococcus aureus [7]): > 16 mg/mL; MBC (Escherichia coli [8]): 16 mg/mL (≈ 73 mM); MBC (Bacillus subtilis [9]): 16 mg/mL (≈ 73 mM); MIC (Escherichia coli [10]): 8 mg/mL (≈ 36.5 mM); MIC (Staphylococcus aureus [11]): 16 mg/mL (≈ 73 mM); zone of inhibition at 1000 µg/mL (Serratia marcescens): 6 mm; MIC (Bacillus subtilis [12]): 16 mg/mL (≈ 73 mM); zone of inhibition at 1000 µg/mL (Pseudomonas aeruginosa [13]): 6 mm; zone of inhibition at 1000 µg/mL (Escherichia coli [14]): 16 mm; zone of inhibition at 1000 µg/mL (Staphylococcus aureus [15]): 14 mm; zone of inhibition at 1000 µg/mL (Bacillus subtilis [16]): 14 mm

Question: With `N#Cc1c(N)nc2c(C#N)c(N3CCOCC3)nn2c1N1CCCCC1` as the molecule, how does the “growth inhibition (GI)” value (Salmonella typhimurium) read?
Answer: inactive

Question: What about the “growth inhibition (GI)” value (Enterococcus faecalis) of the same molecule?
Answer: inactive

Question: What about the “growth inhibition (GI)” value [1] of the same molecule?
Answer: inactive

Question: What about the “growth inhibition (GI)” value (Staphylococcus aureus [2]) of the same molecule?
Answer: inactive

Question: Which results are given for `N#Cc1nnc2c(C#N)c(N3CCCCC3)nn2c1N`?
Answer: Selectivity Index [17]: 0.09; Selectivity Index [3]: 0.09; Selectivity Index [4]: 0.09; Selectivity Index [5]: 0.09; growth inhibition (GI) (Salmonella typhimurium): inactive; growth inhibition (GI) (Enterococcus faecalis): inactive; growth inhibition (GI) [1]: inactive; CC50 [6]: 1.4 mg/mL (≈ 5.22 mM); growth inhibition (GI) (Staphylococcus aureus [2]): inactive; MBC (Pseudomonas aeruginosa [18]): 16 mg/mL (≈ 59.6 mM); MBC (Staphylococcus aureus [7]): 16 mg/mL (≈ 59.6 mM); MBC (Escherichia coli [8]): 16 mg/mL (≈ 59.6 mM); MBC (Bacillus subtilis [9]): 16 mg/mL (≈ 59.6 mM); MIC (Escherichia coli [10]): 16 mg/mL (≈ 59.6 mM); MIC (Pseudomonas aeruginosa [19]): 16 mg/mL (≈ 59.6 mM); MIC (Staphylococcus aureus [11]): 16 mg/mL (≈ 59.6 mM); zone of inhibition at 1000 µg/mL (Serratia marcescens): 6 mm; MIC (Bacillus subtilis [12]): 16 mg/mL (≈ 59.6 mM); zone of inhibition at 1000 µg/mL (Pseudomonas aeruginosa [13]): 7 mm; zone of inhibition at 1000 µg/mL (Escherichia coli [14]): 10 mm; zone of inhibition at 1000 µg/mL (Staphylococcus aureus [15]): 11 mm; zone of inhibition at 1000 µg/mL (Bacillus subtilis [16]): 11 mm

Question: Which “growth inhibition (GI)” value (Salmonella typhimurium) does the source give for `Cc1cc(C)n2nc(N3CCCC3)c(C#N)c2n1` here?
Answer: inactive

Question: What about the “growth inhibition (GI)” value (Enterococcus faecalis) of the same molecule?
Answer: inactive

Question: What about the “growth inhibition (GI)” value [1] of the same molecule?
Answer: inactive

Question: What about the “growth inhibition (GI)” value (Staphylococcus aureus [2]) of the same molecule?
Answer: inactive
